Laboratory results as given in patent US20210163976A1, “GENETICALLY ALTERED PLANTS EXPRESSING HETEROLOGOUS RECEPTORS THAT RECOGNIZE LIPO-CHITOOLIGOSACCHARIDES” (Aarhus Universitet, priority 2018, published 2021).

How the values were obtained:
[1] = target: T1, Medicago truncatula NFP ectodomain (NFP-ECD, residues 28-246), wild type, SEQ ID NO: 1 (Medicago truncatula, UniProt Q0GXS4); assay: Microscale thermophoresis (MST) binding of NFP to carbohydrate ligands
T1 construct: The Medicago truncatula NFP ectodomain (residues 28-246); AcMNPV gp67 signal peptide (replaces native signal peptide 1-27) (N); hexa-histidine tag (C); made in house; host or cells: Sf9 cells (Spodoptera frugiperda), baculovirus
Procedure: (§1) Expression and purification of Medicago NFP ectodomain: The Medicago truncatula NFP ectodomain (residues 28-246) was codon-optimized for insect cell expression (Genscript, Piscataway, USA) and cloned into the pOET4 baculovirus transfer vector (Oxford Expression Technologies). The native NFP signal peptide (residues 1-27, predicted by SignalP 4.1) was replaced with the AcMNPV gp67 signal peptide to facilitate secretion and a hexa-histidine tag was added to the C-terminus. Point mutants of NFP were engineered using site-directed mutagenesis. Recombinant baculoviruses were produced in Sf9 cells (Spodoptera frugiperda) using the FlashBac Gold kit (Oxford Expression technologies) according to the manufacturer's instructions with Lipofectin (ThermoFisher Scientific) as a transfection reagent. Protein expression was performed as follows. Suspension-cultured Sf9 cells were maintained with shaking at 299 K in serum-free MAX-XP (BD-Biosciences, discontinued) or HyClone SFX (GE Healthcare) medium supplemented with 1% Pen-Strep (10000 U/ml, Life technologies) and 1% CD lipid concentrate (Gibco). Protein expression was induced by adding recombinant passage 3 virus once the Sf9 cells reached a cell density of 1.0*10^7^6 cells/ml. After 5-7 days of expression, medium supernatant containing NFP ectodomains was harvested by centrifugation. This was followed by an overnight dialysis step against 50 mM Tris-HCl pH 8, 200 mM NaCl at 277 K. The NFP ectodomain was enriched by two subsequent steps of Ni-IMAC purification (HisTrap excel/HisTrap HP, both GE Healthcare). For crystallography experiments, N-glycans were removed using the endoglycosidase PNGase F (1:15 (w/w), room temperature, overnight). As a final purification step, NFP ectodomain was purified by SEC on a Superdex 200 10/300 or HiLoad Superdex 200 16/600 (both GE Healthcare) in phosphate buffered saline at pH 7.2 supplemented to a total of 500 mM NaCl (for binding assays) or 50 mM Tris-HCl, 200 mM NaCl (for crystallography). NFP ectodomain elutes as a single, homogeneous peak corresponding to a monomer. […]

[2] = target: T1, Medicago truncatula NFP ectodomain (NFP-ECD, residues 28-246), wild type, SEQ ID NO: 1; assay: Biolayer interferometry (BLI) binding of NFP / NFP-ECD to immobilized LCO and CO ligands; details: ligand binding tests, FIG. 3B
Procedure: (§2) Expression and purification of Medicago NFP ectodomain: The Medicago truncatula NFP ectodomain (residues 28-246) was codon-optimized for insect cell expression (Genscript, Piscataway, USA) and cloned into the pOET4 baculovirus transfer vector (Oxford Expression Technologies). The native NFP signal peptide (residues 1-27, predicted by SignalP 4.1) was replaced with the AcMNPV gp67 signal peptide to facilitate secretion and a hexa-histidine tag was added to the C-terminus. Point mutants of NFP were engineered using site-directed mutagenesis. Recombinant baculoviruses were produced in Sf9 cells (Spodoptera frugiperda) using the FlashBac Gold kit (Oxford Expression technologies) according to the manufacturer's instructions with Lipofectin (ThermoFisher Scientific) as a transfection reagent. Protein expression was performed as follows. Suspension-cultured Sf9 cells were maintained with shaking at 299 K in serum-free MAX-XP (BD-Biosciences, discontinued) or HyClone SFX (GE Healthcare) medium supplemented with 1% Pen-Strep (10000 U/ml, Life technologies) and 1% CD lipid concentrate (Gibco). Protein expression was induced by adding recombinant passage 3 virus once the Sf9 cells reached a cell density of 1.0*10^7^6 cells/ml. After 5-7 days of expression, medium supernatant containing NFP ectodomains was harvested by centrifugation. This was followed by an overnight dialysis step against 50 mM Tris-HCl pH 8, 200 mM NaCl at 277 K. The NFP ectodomain was enriched by two subsequent steps of Ni-IMAC purification (HisTrap excel/HisTrap HP, both GE Healthcare). For crystallography experiments, N-glycans were removed using the endoglycosidase PNGase F (1:15 (w/w), room temperature, overnight). As a final purification step, NFP ectodomain was purified by SEC on a Superdex 200 10/300 or HiLoad Superdex 200 16/600 (both GE Healthcare) in phosphate buffered saline at pH 7.2 supplemented to a total of 500 mM NaCl (for binding assays) or 50 mM Tris-HCl, 200 mM NaCl (for crystallography). NFP ectodomain elutes as a single, homogeneous peak corresponding to a monomer. Point mutated versions of NFP were expressed and purified following the same protocol.
(§3) Biolayer interferometry (BLI): Binding of NFP and mutated versions of NFP to ligands was measured on an Octet RED 96 system (Pall ForteBio). The ligands used were LCO-IV (from S. meliloti), LCO-V (from S. meliloti), LCO-V (from M. loti), and C06 (from M. loti). S. meliloti LCO consists of a tetrameric/pentameric N-acetylglucosamine backbone that is 0-sulfated on the reducing terminal residue, 0-acetylated on the non-reducing terminal residue, and mono-N-acylated by unsaturated C16 acyl groups. M. loti LCO is a pentameric N-acetylglucosamine with a cis-vaccenic acid and a carbamoyl group at the non-reducing terminal residue together with a 2,4-O-acetylfucose at the reducing terminal residue. Biotinylated ligand conjugates were immobilized on streptavidin biosensors (kinetic quality, Pall ForteBio) at a concentration of 125-250 nM for 5 minutes. The binding assays using the S. meliloti ligands (LCO-IV and LCO-V) were replicated seven times, while the binding assays using the M loti ligands (LCO-V and C06) were replicated six times. Data analysis was performed in GraphPad Prism 6 software (GraphPad Software, Inc.). Equilibrium dissociation constants derived from the steady-state were determined by applying a non-linear regression (one site, specific binding) to the response at equilibrium plotted against the protein concentration. Kinetic parameters were determined by non-linear regression (association followed by dissociation) on the subtracted data.
(§4) Mutated lipochitooligosaccharide (LCO) ligands: S. meliloti LCO consists of a tetrameric/pentameric N-acetylglucosamine backbone that is O-sulfated on the reducing terminal residue, O-acetylated on the non-reducing terminal residue, and mono-N-acylated by unsaturated C16 acyl groups. […]

[3] = target: T2, Medicago NFP ectodomain (NFP-ECD, WT) (Medicago truncatula, UniProt Q0GXS4); assay: Biolayer interferometry (BLI) binding of NFP-ECD to immobilized biotinylated ligands
T2 construct: The Medicago truncatula NFP ectodomain (residues 28-246) was codon-optimized; AcMNPV gp67 signal peptide (replaces native signal peptide 1-27) (N); made in house; host or cells: Sf9 (Spodoptera frugiperda), baculovirus, secreted into medium
T2 sequence (Q0GXS4 28-246): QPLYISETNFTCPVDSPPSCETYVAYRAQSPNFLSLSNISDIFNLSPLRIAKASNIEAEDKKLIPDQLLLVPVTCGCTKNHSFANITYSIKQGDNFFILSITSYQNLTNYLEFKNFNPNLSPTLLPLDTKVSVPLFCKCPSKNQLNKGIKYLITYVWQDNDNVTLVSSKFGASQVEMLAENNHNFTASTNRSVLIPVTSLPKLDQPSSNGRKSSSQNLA
Procedure: as §2, §3, §4

Medicago NFP ectodomain = target: T3, Medicago NFP ectodomain (Medicago truncatula, UniProt Q0GXS4); assay: Microscale thermophoresis (MST) binding of ligands to labelled NFP; details: carbohydrate ligands
T3 construct: The Medicago truncatula NFP ectodomain (residues 28-246) was codon-optimized; AcMNPV gp67 signal peptide (replaces native signal peptide 1-27) (N); made in house; host or cells: Sf9 (Spodoptera frugiperda), baculovirus, secreted into medium
T3 sequence (Q0GXS4 28-246): T2 sequence (Q0GXS4 28-246)
Procedure: as §1, with “centrifugation.” for “centrifugation. This was followed by an overnight dialysis step against 50 mM Tris-HCl pH 8, 200 mM NaCl at 277 K. The NFP ectodomain was enriched by two subsequent steps of Ni-IMAC purification (HisTrap excel/HisTrap HP, both GE Healthcare). For crystallography experiments, N-glycans were removed using the endoglycosidase PNGase F (1:15 (w/w), room temperature, overnight). As a final purification step, NFP ectodomain was purified by SEC on a Superdex 200 10/300 or HiLoad Superdex 200 16/600 (both GE Healthcare) in phosphate buffered saline at pH 7.2 supplemented to a total of 500 mM NaCl (for binding assays) or 50 mM Tris-HCl, 200 mM NaCl (for crystallography). NFP ectodomain elutes as a single, homogeneous peak corresponding to a monomer.”

OC[C@H]1O[C@H](O[C@H]2[C@H](O)[C@@H](O)[C@@H](O[C@H]3[C@H](O)[C@@H](O)[C@@H](O[C@H]4[C@H](O)[C@@H](O)[C@@H](O[C@H]5[C@H](O)[C@@H](O)[C@@H](O[C@H]6[C@H](O)[C@@H](O)C(O)O[C@@H]6CO)O[C@@H]5CO)O[C@@H]4CO)O[C@@H]3CO)O[C@@H]2CO)[C@H](O)[C@@H](O)[C@@H]1O (some centres unmarked) [maltohexaose]
Binding to NFP (in words) [1]: not able to bind

CCCCCC/C=C\CCCCC/C=C/C(=O)N[C@H]1[C@H](O[C@H]2[C@H](O)[C@@H](NC(C)=O)[C@H](O[C@H]3[C@H](O)[C@@H](NC(C)=O)[C@H](O[C@H]4[C@H](O)[C@@H](NC(C)=O)C(O)O[C@@H]4COS(=O)(=O)O)O[C@@H]3CO)O[C@@H]2CO)O[C@H](CO)[C@@H](O)[C@@H]1O (some centres unmarked) [nodL-LCO-IV]
Binding of mutated LCOs to NFP (in words) [2]: Dramatically reduced binding
reduction of binding to NFP-ECD compared to wild type S. meliloti LCO-IV ([3]; BLI, FIGS. 15D-15E): more than 10 fold
binding to NFP of mutated LCOs ([3]; FIG. 3B, Example 4): Dramatically reduced binding

maltohexaose
binding to NFP (MST) (Medicago NFP ectodomain): not able to bind
